Values quoted from earlier work in patent publication US20100087702A1, “Composition and method to modify sperm fertility and female gender ratio in mammals” (priority 2008, published 2010).

Tests used:
[1] = system: early-staged mouse embryos; conditions: Williams, 1986
[2] = system: Hexose Monophosphate Shunt (HMS); conditions: Tiffen et al., 1991

Structure (SMILES): CCN(CC)c1cc2c(cc1C)Nc1ccc(N)cc1O2 [BCB, 2-methyl-3-diethylamino-7-amino phenoxazine]
- toxicity of BCB and its metabolites [1]: relatively non-toxic
- increase in oxidation of glucose through the HMS [2]: 15 fold
